Consider 2 compounds from publication PMC8469962, “Unusual Bicyclo[3.2.1]Octanoid Neolignans from Leaves of Piper crocatum and Their Effect on Pyruvate Dehydrogenase Activity” (Plants, 2021).

The assay concerns PDHE1α S300 phosphorylation. As to the kind of experiment: Pyruvate dehydrogenase complex (PDH) cellular activity: immunofluorescence of p-PDH E1α (Ser300) in AD-293 cells. Type of assay: cell-based, Human. The note with it: for IC50: Homo sapiens, AD293, 24 h incubation, normalized to 5 mM DCA control, read-out: IC50, inhibition of PDHE1α S300 phosphorylation; for inhibition of phosphorylation of E1α S300 in fluorescent images, compared with DCA: compounds at 60 µM, DCA at 5 mM. On the procedure: Point two percent gelatin was added to a black 96-well plate with a clear bottom and incubated for 1 h. Afterwards, the plate was washed with growth media. Human AD-293 cells, derived from the HEK293 cells, were seeded into black 96-well plates with a clear bottom and grown for 24 h. Compounds were then added and incubated for 24 h. The cells were then fixed with 2% paraformaldehyde, and permeabilized anti-PDHE1 pSer300 (Merk Millipore, Burlington, MA, AP1064) was added and incubated overnight. Next, the cells were washed and Alexa fluor 488, goat anti-rabbit ab (Invitrogen, Waltham, MA, A11008) was added with Hoechst 33,258 (Invitrogen, H3569) and incubated for 2 h. Finally, cells were washed, and the plates were measured in Operetta (PerkinElmer, Waltham, MA). The raw data were normalized for the pharmacological inhibitor control (5 mM dichloroacetate (DCA)) and percentage effect values using the software package Harmony High-Content Imaging and Analysis Software 3.1. Dose response curves were generated by plotting the percentage effect values and IC50 values were calculated via GraphPad Prism 6.

“Also recorded” adds a separate entry of the source.

By IC50 is commonly meant the concentration needed to halve the response being measured. As for `C=CCC1=CC2(OC)C(C)C(c3cc(OC)c(OC4OC(CO)C(O)C(O)C4O)c(OC)c3)C(OC)(C1=O)C2O` [Compound 3, (1′R,2′S,3′R,7S,8R)-∆^5′^8′-2′-hydroxy-3,5,1′,3′-tetramethoxyl-4′-oxo-8.1′7.3′-neolignan-4-O-β-D-glucopyranoside], the IC50 was 80.2 µM and the “inhibition of phosphorylation of E1α S300 in fluorescent images, compared with DCA” value is on record as “better effect than that of dichloroacetate (DCA)”.
Consider `C=CCC12C=C(OC)C(=O)C(OC)(C(c3cc(OC)c(OC4OC(CO)C(O)C(O)C4O)c(OC)c3)C1C)C2O` [Compound 2, (1′R,2′R,3′S,7S,8R)-∆^5′^,8′-2′-hydroxy-3,5,3′,5′-tetramethoxyl-4′-oxo-8.1′7.3′-neolignan-4-O-β-D-glucopyranoside], for which the IC50 worked out at 99.8 µM; the “inhibition of phosphorylation of E1α S300 in fluorescent images, compared with DCA” value was “better effect than that of dichloroacetate (DCA); also recorded: better inhibitory effect of compound 2 than that of compound 3 and DCA”.
